Values of other authors, collected in US20260325482A1, “TASIMELTEON FOR USE IN THE TREATMENT OF DELAYED SLEEP-WAKE PHASE DISORDER” (VANDA PHARMACEUTICALS INC., priority 2023, published 2026).

Columns and labels:
[1] = healthy volunteers, participants with primary insomnia, Non-24, and pediatric participants with SMS
[2] = high-calorie/high-fat meals
[3] = system: MT2 receptor; conditions: MT2 receptor vs MT1 receptor
[4] = system: SMS; conditions: daily dose of 0.7 mg/kg once daily; patients having a body mass of 28 kg or less
[5] = system: Non-24; conditions: daily dose of 20 mg administered once, before bedtime

Cmax with food [2]: significantly lower
Tmax with food [2]: delay
extent of absorption with food [2]: not significantly affected
linearity of pharmacokinetics (doses ranging from 3 mg to 300 mg): linear
absolute bioavailability (oral): 38%
Structure (SMILES): CCC(=O)NC[C@@H]1C[C@H]1c1cccc2c1CCO2 [tasimelteon]
safety and tolerability [1]: safe and well-tolerated
affinity for the MT2 receptor compared with the MT1 receptor [3]: greater affinity for the MT2 receptor than the MT1 receptor
effectiveness in treating SMS [4]: effective
effectiveness in treating Non-24 [5]: effective
